According to patent US10899759B2, “Positive allosteric modulators of the muscarinic acetylcholine receptor M1” (Vanderbilt University, priority 2016, dated 2021):

Target: T1, human mAChR M1 (Homo sapiens, UniProt P11229)
T1 construct: host or cells: CHO-K1
T1 sequence (P11229 1-460): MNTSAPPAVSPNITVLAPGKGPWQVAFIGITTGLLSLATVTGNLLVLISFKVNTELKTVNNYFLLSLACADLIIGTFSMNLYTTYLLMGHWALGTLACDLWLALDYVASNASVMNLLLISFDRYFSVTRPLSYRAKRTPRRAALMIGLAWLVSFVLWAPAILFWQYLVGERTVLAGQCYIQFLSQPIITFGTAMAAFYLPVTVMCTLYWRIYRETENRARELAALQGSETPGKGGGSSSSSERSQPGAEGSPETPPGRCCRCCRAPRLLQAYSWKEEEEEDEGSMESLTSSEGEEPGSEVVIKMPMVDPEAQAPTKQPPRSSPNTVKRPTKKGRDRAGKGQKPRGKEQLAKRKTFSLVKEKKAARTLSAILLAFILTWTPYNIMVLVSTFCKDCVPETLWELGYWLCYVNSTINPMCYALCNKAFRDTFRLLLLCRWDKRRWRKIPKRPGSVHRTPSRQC
Assay: mAChR M1 cell-based functional assay (calcium mobilization, Fluo-4, FDSS)
Details: CHO-K1 cells stably expressing hM1; for Emax: EC20 acetylcholine response, read-out: Human M1 Emax; for EC50: positive allosteric modulator activity as increase in the EC20 acetylcholine response
Procedure: Chinese hamster ovary (CHO-K1) cells stably expressing rat (r)M1 were purchased from the American Type Culture Collection and cultured according to their indicated protocol. […] To make stable rM2, hM2, rM3, hM4, and rM4 cell lines for use in calcium mobilization assays, these cells also were stably transfected with a chimeric G-protein (Gqi5) (provided by B. R. Conklin, University of California, San Francisco) using Lipofectamine 2000. rM1, hM1, rM3, hM3, rM5, and hM5 cells were grown in Ham's F-12 medium containing 10% heat-inactivated fetal bovine serum (FBS), 20 mM HEPES, and 50 μg/mL G418 sulfate. rM2-Gqi5, hM2-Gqi5, and hM4-Gqi5 cells were grown in the same medium also containing 500 μg/mL Hygromycin B. Stable rM4-Gqi5 cells were grown in DMEM containing 10% heat-inactivated FBS, 20 mM HEPES, 400 μg/mL G418 sulfate, and 500 μg/mL Hygromycin B.
For high throughput measurement of agonist-evoked increases in intracellular calcium, CHO-K1 cells stably expressing muscarinic receptors were plated in growth medium lacking G418 and hygromycin at 15,000 cells/20 μL/well in Greiner 384-well black-walled, tissue culture (TC)-treated, clear-bottom plates (VWR). Cells were incubated overnight at 37° C. and 5% CO2. […] Compound master plates were formatted in an 11 point CRC format (1:3 dilutions) in 100% DMSO with a starting concentration of 10 mM using the BRAVO liquid handler (Agilent). Test compound CRCs were then transferred to daughter plates (240 nL) using the Echo acoustic plate reformatter (Labcyte, Sunnyvale, Calif.) and then diluted into assay buffer (40 μL) to a 2× stock using a Thermo Fisher Combi (Thermo Fisher Scientific, Waltham, Mass.).
Calcium flux was measured using the Functional Drug Screening System (FDSS) 6000 (Hamamatsu Corporation, Tokyo, Japan) as an increase in the fluorescent static ratio. Compounds were applied to cells (20 μL, 2×) using the automated system of the FDSS 6000 at 4 s into the 300 s protocol and the data were collected at 1 Hz. […] Agonist activity was analyzed as a concentration-dependent increase in calcium mobilization upon compound addition. Positive allosteric modulator activity was analyzed as a concentration-dependent increase in the EC20 acetylcholine response. Antagonist activity was analyzed as a concentration-dependent decrease in the EC80 acetylcholine response. Concentration-response curves were generated using a four-parameter logistical equation in XLfit curve fitting software (IDBS, Bridgewater, N.J.) for Excel (Microsoft, Redmond, Wash.) or Prism (GraphPad Software, Inc., San Diego, Calif.).
The compound numbers correspond to the compound numbers used in Table 1.

| Compound | Emax | EC50 |
| --- | --- | --- |
| Cc1nc(-c2ccc(Cc3cc(C(=O)NCC4CCOCC4)nc4c3ccn4C)cc2)co1 [Compound 58, 1-methyl-4-[[4-(2-methyloxazol-4-yl)phenyl]methyl]-N-(tetrahydropyran-4-ylmethyl)pyrrolo[2,3-b]pyridine-6-carboxamide] | 84.1% | 1.05 µM |
| Cc1nc(-c2ccc(Cc3cc(C(=O)N[C@H]4CCC[C@@H]4O)nc4c3ccn4C)cc2)co1 [Compound 56, N-[(1S,2S)-2-hydroxycyclopentyl]-1-methy1-4-[[4-(2-methyloxazol-4-yl)phenyl]methyl]pyrrolo[2,3-b]pyridine-6-carboxamide] | 84% | 0.27 µM |
| Cn1ncc2c(Cc3ccc(-c4cscn4)cc3)cc(C(=O)NC3CCOCC3)nc21 [Compound 1, 1-methyl-N-tetrahydropyran-4-yl-4-[(4-thiazol-4-ylphenyl)methyl]pyrazolo[3,4-b]pyridine-6-carboxamide] | 69% | 1.42 µM |
| Cn1ccc(-c2ccc(Cc3cc(C(=O)NC4CC(F)(F)C4)nc4sccc34)cc2)n1 [Compound 98, N-(3,3-difluorocyclobutyl)-4-[[4-(1-methylpyrazol-3-yl)phenyl]methyl]thieno[2,3-b]pyridine-6-carboxamide] | 68.7% | 1.65 µM |
| Cn1ccc2c(Cc3ccc(-c4cscn4)cc3)cc(C(=O)NC3CN(C4COC4)C3)nc21 [Compound 36, 1-methyl-N-[1-(oxetan-3-yl)azetidin-3-yl]-4-[(4-thiazol-4-ylphenyl)methyl]pyrrolo[2,3-b]pyridine-6-carboxamide] | 66% | 3.12 µM |
| Cn1ccc(-c2ccc(Cc3cc(C(=O)N[C@H]4CCOC[C@@H]4O)nc4sccc34)cc2)n1 [Compound 89, N-[(3R,4S)-3-hydroxytetrahydropyran-4-yl]-4-[[4-(1-methylpyrazol-3-yl)phenyl]methyl]thieno[2,3-b]pyridine-6-carboxamide] | 41.2% | 0.04 µM |
| Cn1ccc(-c2ccc(Cc3cc(C(=O)N[C@H]4CCCC[C@@H]4O)nc4c3ccn4C)cn2)n1 [Compound 155, N-[(1S,2S)-2-hydroxycyclohexyl]-1-methyl-4-[[6-(1-methylpyrazol-3-yl)-3-pyridyl]methyl]pyrrolo[2,3-b]pyridine-6-carboxamide] | 65.7% | 0.11 µM |
| CCn1ccc2c(Cc3ccc(-n4cccn4)cc3)cc(C(=O)NC3CCOCC3)nc21 [Compound 11, 1-ethyl-4-[(4-pyrazol-1-ylphenyl)methyl]-N-tetrahydropyran-4-yl-pyrrolo[2,3-b]pyridine-6-carboxamide] | 74% | 0.28 µM |
| Cn1ccc2c(Cc3ccc(-n4cccn4)cc3)cc(C(=O)N[C@H]3CCOC[C@@H]3O)nc21 [Compound 16, N-[(3R,4S)-3-hydroxytetrahydropyran-4-yl]-1-methyl-4-[(4-pyrazol-1-ylphenyl)methyl]pyrrolo[2,3-b]pyridine-6-carboxamide] | 63.4% | 0.01 µM |
| Cn1ccc2c(Cc3ccc(-c4cscn4)cc3)cc(C(=O)NC3CCOC(C)(C)C3)nc21 (stereo not drawn) [Compound 25, N-(2,2-dimethyltetrahydropyran-4-yl)-1-methyl-4-[(4-thiazol-4-ylphenyl)methyl]pyrrolo[2,3-b]pyridine-6-carboxamide] | 76.7% | 0.67 µM |
| Cc1nc(-c2ccc(Cc3cc(C(=O)NC4CC(F)C4)nc4sccc34)cc2)co1 (stereo not drawn) [Compound 141] | 35.9% | > 10 µM |
| Cc1nc(-c2ccc(Cc3cc(C(=O)NC4CCOC(C)(C)C4)nc4c3ccn4C)cc2)co1 (stereo not drawn) [Compound 55, N-(2,2-dimethyltetrahydropyran-4-yl)-1-methyl-4-[[4-(2-methyloxazol-4-yl)phenyl]methyl]pyrrolo[2,3-b]pyridine-6-carboxamide] | 86.1% | 0.52 µM |
| Cn1ccc2c(Cc3ccc(-c4cscn4)cc3)cc(C(=O)N[C@H]3CCCC[C@@H]3O)nc21 [Compound 22, N-[(1S,2S)-2-hydroxycyclohexyl]-1-methyl-4-[(4-thiazol-4-ylphenyl)methyl]pyrrolo[2,3-b]pyridine-6-carboxamide] | 63.3% | 0.04 µM |

Next, values leading:

| Emax | EC50 | Compound |
| --- | --- | --- |
| 63.9% | 0.47 µM | Cc1nc(-c2ccc(Cc3cc(C(=O)N[C@H]4CCCC[C@@H]4O)nc4sccc34)cc2)co1 [Compound 129, N-[(1S,2S)-2-hydroxycyclohexyl]-4-[[4-(2-methyloxazol-4-yl)phenyl]methyl]thieno[2,3-b]pyridine-6-carboxamide] |
| 69.9% | 1.73 µM | Cn1ncc2c(Cc3ccc(-n4cccn4)cc3)cc(C(=O)NC3CC4(COC4)C3)nc21 [Compound 6, 1-methyl-N-(2-oxaspiro[3.3]heptan-6-yl)-4-[(4-pyrazol-1-ylphenyl)methyl]pyrazolo[3,4-b]pyridine-6-carboxamide] |
| 86.6% | 0.2 µM | Cn1ncc2c(Cc3ccc(-n4cccn4)cc3)cc(C(=O)N[C@H]3CCCC[C@@H]3O)nc21 [Compound 8, N-[(1S,2S)-2-hydroxycyclohexyl]-1-methyl-4-[(4-pyrazol-1-ylphenyl)methyl]pyrazolo[3,4-b]pyridine-6-carboxamide] |
| 42.7% | 1.08 µM | O=C(NCC1CCN1)c1cc(Cc2ccc(-n3cccn3)cc2)c2ccsc2n1 (stereo not drawn) [Compound 84, N-(azetidin-2-ylmethyl)-4-[(4-pyrazol-1-ylphenyl)methyl]thieno[2,3-b]pyridine-6-carboxamide] |
| 83.4% | 0.03 µM | Cc1nc(-c2ccc(Cc3cc(C(=O)N[C@H]4CCOC[C@@H]4O)nc4c3ccn4C)cc2)co1 [Compound 51, N-[(3R,4S)-3-hydroxytetrahydropyran-4-yl]-1-methyl-4-[[4-(2-methyloxazol-4-yl)phenyl]methyl]pyrrolo[2,3-b]pyridine-6-carboxamide] |
| 62.8% | 3.33 µM | COCCNC(=O)c1cc(Cc2ccc(-c3ccn(C)n3)cc2)c2ccsc2n1 [Compound 99, N-(2-methoxyethyl)-4-[[4-(1-methylpyrazol-3-yl)phenyl]methyl]thieno[2,3-b]pyridine-6-carboxamide] |
| 39.7% | 0.38 µM | Cn1ccc2c(Cc3ccc(-c4cscn4)cc3)cc(C(=O)N[C@@H]3CCCOC3)nc21 [Compound 32, 1-methyl-N-[(3R)-tetrahydropyran-3-yl]-4-[(4-thiazol-4-ylphenyl)methyl]pyrrolo[2,3-b]pyridine-6-carboxamide] |
| 60.5% | 0.07 µM | Cn1ccc(-c2ccc(Cc3cc(C(=O)NC4CCOC(C)(C)C4)nc4sccc34)cn2)n1 (stereo not drawn) [Compound 103, N-(2,2-dimethyltetrahydropyran-4-yl)-4-[[6-(1-methylpyrazol-3-yl)-3-pyridyl]methyl]thieno[2,3-b]pyridine-6-carboxamide] |
| 74.8% | 1.77 µM | O=C(NC1CC(F)(F)C1)c1cc(Cc2ccc(-n3cccn3)cc2)c2ccsc2n1 [Compound 83, N-(3,3-difluorocyclobutyl)-4-[(4-pyrazol-1-ylphenyl)methyl]thieno[2,3-b]pyridine-6-carboxamide] |
| 57.2% | 33.6 µM | Cn1ccc2c(Cc3ccc(-c4nccs4)cc3)cc(C(=O)N[C@H]3CCC[C@@H]3O)nc21 [Compound 64, N-[(1S,2S)-2-hydroxycyclopentyl]-1-methyl-4-[(4-thiazol-2-ylphenyl)methyl]pyrrolo[2,3-b]pyridine-6-carboxamide] |
| 77.7% | 0.82 µM | Cn1ccc(-c2ccc(Cc3cc(C(=O)NCC4CCOCC4)nc4c3ccn4C)cn2)n1 [Compound 150] |
